Patent US20050154046A1, “Methods of treating an inflammatory-related disease” (priority 2004, published 2005)
Entries after “also recorded” stand apart in the source; their conditions may differ.

Assays:
[1] = tested on: IL-1β; assay: IL-1β secretion (ELISA) in LPS-stimulated THP-1 cells; format: cell-based, human; settings: as low as 31.25 nM (31.25 and 62.5 nM in FIG. 6), 24 h
Procedure: It was prepared in a solution of dimethyl sulfoxide (DMSO), and stored under −20° C. for the experiments in vitro. Human monocytic cell line, THP-1 (90), was purchased from ATCC. The cells were maintained according to the supplier's instructions. Approximately 1×10^5 cells/ml were cultured at 37° C., 5% CO2 for 24 hours in Modified RPMI-1640 Medium (Invitrogen) supplemented with 10% FBS.
Viability of cells was examined under microscope after trypan blue staining. Protein levels of IL-1β secreted into the culture media by the cells were then measured by ELISA and calculated from its standard curve using an assay Kit from R&D Systems according to instructions provided by the supplier.
Statistical Analysis: All data were expressed as a mean±SD. Statistical significance of any difference between the control (LPS) and experimental groups was determined by the Student's t-test. P values between the 2 groups must be at least smaller than 0.05 to be considered statistically significant.
(§5) 1) Effects of Meisoindigo and NATURA on the expression/secretion of cytokines IL-1β, IL-6, IL-10: The human monocytic THP-1 cells grown exponentially were stimulated with or without 1 μM of lipopolysaccharide (LPS, Sigma), and exposed for 24 hours to different concentrations of Meisoindigo and NATURA (from 31.25 nM and 62.5 nM), respectively. Viability of cells was examined by trypan blue exception assay.

[2] = tested on: IL-6; assay: IL-6 secretion (ELISA) in LPS-stimulated THP-1 cells; format: cell-based, human; settings: as low as 31.25 nM (31.25 and 62.5 nM in FIG. 6), 24 h
Procedure: (§6) Viability of cells was examined under microscope after trypan blue staining.
Standard IL-6 protein was used to establish a standard curve for the calculation of IL-6 in the medium secreted by the cells (LPS-stimulated or non-stimulated cells in the presence or absence of Meisoindigo).
as §5

[3] = tested on: IL-10; assay: IL-10 secretion (ELISA) in THP-1 cells; format: cell-based, human
Text: as §6
Viability of cells was examined by trypan blue exception assay.

[4] = target: T1, CDK2 (Homo sapiens, UniProt P24941); assay: Cyclin dependent kinase activity in THP-1 cells (immunoprecipitation, histone H1 phosphorylation); format: cell-based; settings: 24 h
T1 construct: endogenous in cells; host or cells: THP-1
Procedure: (§1) 2) Effects of Meisoindigo and/or NATURA on activity of cyclin dependent kinases (CDK) in THP-1 cells (99): THP-1 cells grown exponentially were exposed to […] of Meisoindigo or NATURA for 24 hr, respectively.
(§2) The cells were harvested, washed, and total proteins extracted as described previously (100). One hundred μg of the proteins were immuno-precipitated using antibodies against either cdk2, cdk4/6 or cyclin D1 overnight at 4° C. in the presence of a cocktail of protease inhibitors. The immuno-precipitates were washed 4 times with protein extraction buffer and once with kinase assay buffer, and reacted with […] histone H1 in the presence of [γ-^32P]-ATP (10 μCi/10 μM). The phosphorylated histone H1 (represent cdk activity) was measured by scintillation counting or by SDS-polyacrylaimde gel electrophoresis (101, 102).

[5] = tested on: cdk4/6; assay: as above; format: cell-based, human; settings: 31.25 and 62.5 nM, 24 h
Procedure: as §1, §2

[6] = tested on: cyclin D1; assay: Cyclin D1 levels in THP-1 cells; format: cell-based, human; settings: 31.25 and 62.5 nM, 24 h; data not shown
[7] = target: T2, glycogen synthase kinase-3β (GSK-3β) (Homo sapiens, UniProt P49841); assay: Effect on glycogen synthase kinase-3β in cells; format: cell-based; settings: as high as 50 μM; data not shown
T2 construct: endogenous in cells

[8] = tested on: scale epithelial cells of mouse-tails; assay: Mouse-tail model: granular layer formation in scale epithelial cells; format: in vivo, Kunming mice; settings: 1.0 mg/kg i.p. once every 2 days, 13 days
Text: (§3) Materials: Meisoindigo was synthesized, purified and its structure characterized by Natrogen Therapeutics, Inc. The purity of the compound was 98.5% as described in the Examples above. A suspension of Meisoindigo was freshly prepared in 0.5% sodium methylcellulose and given orally for the animal tests described below. Other chemicals used in the following experiments were purchased from Sigma.
(§4) Pathogen-free female Kunming mice at 12 weeks of age with body weights from 22 to 25 grams were housed 5 per cage, and given, ad libitum, fresh tap water and commercial rodent pellets. Animal rooms were controlled at 24±2° C. with a relative humidity of 60±5% and a 12 hour light/dark cycle (07:00-19:00 hr).
Effect of Meisoindigo on Epidermal Cell Differentiation in Mouse Tails: Sixty female Kunming mice were randomly divided into 5 groups, 20 in one control group, and 10 in 4 drug-tested groups. Meisoindigo was freshly prepared as a suspension in 0.5% of sodium methylcellulose. The drug was given orally at doses of 50, 100, and 200 mg/kg, respectively, once a day for 13 days. Methotrexate (MTX) was used as a positive control at a dose of 1 mg/kg, i.p. once every 2 days, for the same period of time. The same volume and vehicle for Meisoindigo suspension were used as a negative control. […] Slides were prepared for histological examination as originally described by Bosman et. al., (106). The slides were prepared by cutting the tails into longitudinal sections, and Hematoxylin and Eosin (H&E) stained. The slides were then examined with a light microscope to evaluate the degree of orthokeratosis (OK) and epidermal hyperplasia. The former was done by measuring the horizontal length of the fully developed granular layer stratum granulosum within an individual scale in relation to its total length. Drug activity was defined by the increase of the positive scale cells containing granular layer stratum granulosum between two folliculus pili.

[9] = tested on: mouse vaginal epithelium; assay: Mitotic index in estrogen-stimulated vaginal epithelium of female mice; format: in vivo, Kunming mice; settings: 1.0 mg/kg i.p. once a day, 3 days; percent of mitotic cells
Text: as §3, §4
Anti-mitotic Effects of Meisoindigo on Mouse Vaginal Epithelium: Sixty Kunming female mice were randomly divided into 5 groups, 20 in one control group, and 10 in 4 drug-tested groups. All mice were given estrogen at a dose of 0.2 mg/animal for 3 days to allow vaginal epithelial cells to develop under the stimulation of estrogen hormone. Meisoindigo was freshly prepared as a suspension in 0.5% of sodium methylcellulose. The drug was given orally at doses of 50, 100, and 200 mg/kg, respectively, once a day for 3 days. Methotrexate (MTX) was used as a positive control at a dose of 1 mg/kg, i.p. once a day for the same period of time. […] The mitotic index (percent of mitotic cells) was calculated.

T2 sequence (P49841 whole entry): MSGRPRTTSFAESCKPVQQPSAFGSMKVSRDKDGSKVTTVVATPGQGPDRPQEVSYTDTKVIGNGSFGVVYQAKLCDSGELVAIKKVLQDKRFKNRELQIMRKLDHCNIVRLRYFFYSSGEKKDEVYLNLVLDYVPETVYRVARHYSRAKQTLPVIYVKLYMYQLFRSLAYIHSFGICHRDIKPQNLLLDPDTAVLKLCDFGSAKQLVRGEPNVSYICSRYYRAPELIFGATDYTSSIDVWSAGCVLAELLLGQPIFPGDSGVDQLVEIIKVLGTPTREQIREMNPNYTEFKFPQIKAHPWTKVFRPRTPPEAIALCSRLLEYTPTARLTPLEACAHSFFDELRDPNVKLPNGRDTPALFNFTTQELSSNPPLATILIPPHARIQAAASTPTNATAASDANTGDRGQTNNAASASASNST

SMILES | effect on IL-1β production [1] | effect on IL-6 production/secretion [2] | effect on IL-10 production ([3]; 31.25 and 62.5 nM, 24 h) | elevation of LPS-suppressed IL-10 ([3]; similar concentrations (as low as 31.25 nM), FIG. 6A) | partial inhibition of CDK activity ([4]; 1.5 μM, FIG. 6B) | inhibition of CDK2 activity ([4]; 31.25 and 62.50 nM) | inhibition of cyclin dependent kinase 4 and 6 activity [5] | effect on levels of cyclin D1 [6] | activity on GSK-3β [7] | Granulous Scales (X ± SD) [8] | Mitotic Index (X ± SD) [9]
CC(=O)OC1COC(N2C(=O)/C(=C3/C(=O)Nc4ccccc43)c3ccccc32)C(OC(C)=O)C1OC(C)=O (centres unmarked) [NATURA] | significantly inhibit | significantly inhibit | promoted production | ~2 fold | 23% | failed to inhibit; also recorded: no inhibitory effect | failed to inhibit | failed to inhibit | no activity was observed |  | 
CN(Cc1cnc2nc(N)nc(N)c2n1)c1ccc(C(=O)N[C@@H](CCC(=O)O)C(=O)O)cc1 [MTX, Methotrexate, reference compound] |  |  |  |  |  |  |  |  |  | 17.22 ± 4.92 | 14.76±4.29
